From US20130252935A1, “Monobactams” (PFIZER INC., priority 2010, published 2013)
Values after ≈ are worked out from the molar mass of the structure shown.

Tests used:
Assay type in all cases: cell-based
[1] = tested on: Pseudomonas aeruginosa UC-12120; assay: minimum inhibitory concentration (MIC) testing according to CLSI guidelines, Pseudomonas aeruginosa; settings: Pseudomonas aeruginosa, UC12120; UC-12120, wild-type, labeled as 1091-05; overnight incubation; lower of duplicate values; read-out: AB-MBT: Pseudomonas aeruginosa 1091-05: MIC (MstRcn)
Method: (§1) In order to assess the compounds biological activity, the in vitro anti-bacterial activity of selected compounds described in the Examples 1-69 was evaluated by minimum inhibitory concentration (MIC) testing according to Clinical and Laboratory Standards Institute (CLSI, formerly NCCLS) guidelines. See: Clinical and Laboratory Standards Institute. Methods for Dilution Antimicrobial Susceptibility Tests for Bacteria that Grow Aerobically; Approved Standard-Eighth Edition. CLSI document M7-A8 [ISBN 1-56238-689-1]. Clinical and Laboratory Standards Institute, 940 West Valley Road, Suite 1400, Wayne, Pa. 19087-1898 USA, 2006; also Clinical and Laboratory Standards Institute. Performance Standards for Antimicrobial Susceptibility Testing; Twentieth Informational Supplement. CLSI document M100-S20 [ISBN1-56238-716-2]. Clinical and Laboratory Standards Institute.
(§2) The MIC determination is a standard laboratory method for evaluating the antibacterial activity of a compound. The MIC represents the lowest drug concentration that inhibits visible growth of bacteria following overnight incubation. […] Typically, the drug concentration range is broken down into 2-fold increments (e.g. 0.06 μg/mL, 0.12 μg/mL. 0.25 μg/mL, 0.50 μg/mL, 1.0 μg/mL, etc.) and the various drug concentrations are all individually incubated overnight with approximately the same number of bacteria. The MIC is then determined by visually inspecting the drug effect at each concentration, and identifying the lowest drug concentration that has inhibited bacterial growth as compared to the drug free control. Typically, bacteria continue to grow at drug concentrations lower than the MIC and don't grow at concentrations at and above the MIC.
(§3) The MIC values described in Table 1 below were derived from assays wherein each test compound was evaluated in duplicate. In cases where the duplicate values varied by 0-2-fold, the lower of the two values was reported below. Generally speaking, if the duplicate values varied by more than 2-fold, the assay was considered non-valid and was repeated until the variation between duplicate runs was ≦2-fold. In line with the CLSI guidelines referred to above, both control organisms and reference compounds were utilized in each MIC assay to provide proper quality control. MIC values generated with these control organisms and reference compounds were required to fall within a defined range for the assay to be considered valid and be included herein. Those skilled in the art will recognize that MIC values can and do vary from experiment to experiment. Generally speaking, it should be recognized that MIC values often vary +/−2-fold from experiment to experiment. While a single MIC is reported for each compound and each microorganism, the reader should not conclude that each compound was only tested once. Several of the compounds were subjected to multiple tests. The data reported in Table 1 is reflective of the compounds relative activity and different MICs may have been generated on these occasions in light with the guidelines described above.
(§4) The following bacterial strains were used in these MIC determinations:
1) Pseudomonas aeruginosa UC-12120: Wild-type, labeled as 1091-05;

[2] = tested on: Klebsiella pneumoniae 1000-02; assay: minimum inhibitory concentration (MIC) testing according to CLSI guidelines, Klebsiella pneumoniae; settings: Klebsiella pneumoniae; ciprofloxacin-resistant, ESBL-expressing clinical isolate 1000-02; overnight incubation; lower of duplicate values; read-out: AB-MBT: Klebsiella pneumoniae 1000-02: MIC (MstRcnt)
Method: as §1, §2, §3, §4
2) Klebsiella pneumoniae: Ciprofloxacin-resistant isolate, expresses extended-spectrum beta-lactamases (ESBL), clinical isolate, labeled as 1000-02;

[3] = tested on: Acinetobacter baumannii/haemolyticus AB-3167; assay: minimum inhibitory concentration (MIC) testing according to CLSI guidelines, Acinetobacter; settings: Acinetobacter baumannii; multidrug-resistant clinical isolate AB-3167; overnight incubation; lower of duplicate values; read-out: AB-MBT: Acinetobacter baumanii AB-3167: MIC (MstRcnt)
Method: as §1, §2, §3, §4
3) Acinetobacter baumannii/haemolyticus: Multidrug-resistant clinical isolate, labeled as AB-3167.

| SMILES | MIC [1] | MIC [2] | MIC [3] |
| --- | --- | --- | --- |
| CC(C)(O/N=C(\C(=O)N[C@@H]1C(=O)N(S(=O)(=O)O)[C@@H]1COC(=O)CNC(=O)c1cc(=O)c(O)cn1O)c1csc(N)n1)C(=O)O [Example 7, 2-({[(1Z)-1-(2-amino-1,3-thiazol-4-yl)-2-({(2S,3S)-2-[({N-[(1,5-dihydroxy-4-oxo-1,4-dihydropyridin-2-yl)carbonyl]glycyl}oxy)methyl]-4-oxo-1-sulfoazetidin-3-yl}amino)-2-oxoethylidene]amino}oxy)-2-methylpropanoic acid] | 0.125 µg/mL (≈ 0.189 µM) | 8 µg/mL (≈ 12.1 µM) | 0.5 µg/mL (≈ 0.756 µM) |
| Nc1nc(/C(=N/OC2(C(=O)O)CCOCC2)C(=O)N[C@@H]2C(=O)N(S(=O)(=O)O)[C@@H]2CNC(=O)NCc2cc(=O)c(O)cn2O)cs1 [Example 27, 4-({[(1Z)-1-(2-amino-1,3-thiazol-4-yl)-2-({(2R,3S)-2-[({[(1,5-dihydroxy-4-oxo-1,4-dihydropyridin-2-yl)methyl]carbamoyl}amino)methyl]-4-oxo-1-sulfoazetidin-3-yl}amino)-2-oxoethylidene]amino}oxy)tetrahydro-2H-pyran-4-carboxylic acid] | 1 µg/mL (≈ 1.48 µM) | 1 µg/mL (≈ 1.48 µM) | 2 µg/mL (≈ 2.96 µM) |
| CC(C)(O/N=C(\C(=O)N[C@@H]1C(=O)N(S(=O)(=O)O)[C@@H]1COC(=O)c1cc(-c2cc(=O)c(O)c[nH]2)no1)c1csc(N)n1)C(=O)O [Example 12, 2-({[(1Z)-1-(2-amino-1,3-thiazol-4-yl)-2-({(2S,3S)-2-[({[3-(5-hydroxy-4-oxo-1,4-dihydropyridin-2-yl)isoxazol-5-yl]carbonyl}oxy)methyl]-4-oxo-1-sulfoazetidin-3-yl}amino)-2-oxoethylidene]amino}oxy)-2-methylpropanoic acid] | 4 µg/mL (≈ 6.1 µM) | 0.25 µg/mL (≈ 0.381 µM) | 16 µg/mL (≈ 24.4 µM) |
| CC(C)(O/N=C(\C(=O)N[C@@H]1C(=O)N(S(=O)(=O)O)[C@@H]1CNC(=O)C1CN(Cc2cc(=O)c(O)c[nH]2)C1)c1csc(N)n1)C(=O)O [Example 9, 2-({[(1Z)-1-(2-amino-1,3-thiazol-4-yl)-2-{[(2R,3S)-2-{[({1-[(5-hydroxy-4-oxo-1,4-dihydropyridin-2-yl)methyl]azetidin-3-yl}carbonyl)amino]methyl}-4-oxo-1-sulfoazetidin-3-yl]amino}-2-oxoethylidene]amino}oxy)-2-methylpropanoic acid] | 4 µg/mL (≈ 6.09 µM) | 4 µg/mL (≈ 6.09 µM) | 2 µg/mL (≈ 3.05 µM) |
| CC(C)C[C@H](O/N=C(\C(=O)N[C@@H]1C(=O)N(S(=O)(=O)O)[C@@H]1CNC(=O)NCc1cc(=O)c(O)cn1O)c1csc(N)n1)C(=O)O [Example 31, (2S)-2-({[(1Z)-1-(2-amino-1,3-thiazol-4-yl)-2-({(2R,3S)-2-[({[(1,5-dihydroxy-4-oxo-1,4-dihydropyridin-2-yl)methyl]carbamoyl}amino)methyl]-4-oxo-1-sulfoazetidin-3-yl}amino)-2-oxoethylidene]amino}oxy)-4-methylpentanoic acid] | 1 µg/mL (≈ 1.51 µM) | 0.5 µg/mL (≈ 0.757 µM) | 0.5 µg/mL (≈ 0.757 µM) |
| CC(C)(O/N=C(\C(=O)N[C@@H]1C(=O)N(S(=O)(=O)O)[C@@H]1COC(=O)c1csc(-c2cc(=O)c(O)c[nH]2)n1)c1csc(N)n1)C(=O)O [Example 19, 2-({[(1Z)-1-(2-amino-1,3-thiazol-4-yl)-2-({(2S,3S)-2-[({[2-(5-hydroxy-4-oxo-1,4-dihydropyridin-2-yl)-1,3-thiazol-4-yl]carbonyl}oxy)methyl]-4-oxo-1-sulfoazetidin-3-yl}amino)-2-oxoethylidene]amino}oxy)-2-methylpropanoic acid] | 0.5 µg/mL (≈ 0.744 µM) | 1 µg/mL (≈ 1.49 µM) | 1 µg/mL (≈ 1.49 µM) |
| Nc1nc(/C(=N/OC2(C(=O)O)CCCC2)C(=O)N[C@@H]2C(=O)N(S(=O)(=O)O)[C@@H]2CNC(=O)NCc2cc(=O)c(O)cn2O)cs1 [Example 26, 1-({[(1Z)-1-(2-amino-1,3-thiazol-4-yl)-2-({(2R,3S)-2-[({[(1,5-dihydroxy-4-oxo-1,4-dihydropyridin-2-yl)methyl]carbamoyl}amino)methyl]-4-oxo-1-sulfoazetidin-3-yl}amino)-2-oxoethylidene]amino}oxy)cyclopentanecarboxylic acid] | 0.125 µg/mL (≈ 0.19 µM) | 0.125 µg/mL (≈ 0.19 µM) | 0.25 µg/mL (≈ 0.38 µM) |
| CC(C)(O/N=C(\C(=O)N[C@@H]1C(=O)N(S(=O)(=O)O)[C@@H]1COC(=O)CNC(=O)c1cc(O)c(O)cn1)c1csc(N)n1)C(=O)O [Example 6, 2-({[(1Z)-1-(2-amino-1,3-thiazol-4-yl)-2-({(2S,3S)-2-[({N-[(4,5-dihydroxypyridin-2-yl)carbonyl]glycyl}oxy)methyl]-4-oxo-1-sulfoazetidin-3-yl}amino)-2-oxoethylidene]amino}oxy)-2-methylpropanoic acid] | – | 8 µg/mL (≈ 12.4 µM) | 1 µg/mL (≈ 1.55 µM) |

Second part, led by results:

| MIC [1] | MIC [2] | SMILES | MIC [3] |
| --- | --- | --- | --- |
| 0.25 µg/mL (≈ 0.395 µM) | 2 µg/mL (≈ 3.16 µM) | CC(C)(O/N=C(\C(=O)N[C@@H]1C(=O)N(S(=O)(=O)O)[C@@H]1CNC(=O)NCc1cc(=O)c(O)cn1O)c1nsc(N)n1)C(=O)O [Example 33, 2-({[(1Z)-1-(5-amino-1,2,4-thiadiazol-3-yl)-2-({(2R,3S)-2-[({[(1,5-dihydroxy-4-oxo-1,4-dihydropyridin-2-yl)methyl]carbamoyl}amino)methyl]-4-oxo-1-sulfoazetidin-3-yl}amino)-2-oxoethylidene]amino}oxy)-2-methylpropanoic acid] | 0.5 µg/mL (≈ 0.789 µM) |
| 1 µg/mL (≈ 1.34 µM) | 0.25 µg/mL (≈ 0.334 µM) | Nc1nc(/C(=N/OC2(C(=O)O)CCC2)C(=O)N[C@@H]2C(=O)N(S(=O)(=O)O)[C@@H]2CNC(=O)c2cccc(C(=O)NCc3cc(=O)c(O)cn3O)c2)cs1 [Example 64, 1-({[(1Z)-1-(2-amino-1,3-thiazol-4-yl)-2-{[(2R,3S)-2-{[(3-{[(1,5-dihydroxy-4-oxo-1,4-dihydropyridin-2-yl)methyl]carbamoyl}benzoyl)amino]methyl}-4-oxo-1-sulfoazetidin-3-yl]amino}-2-oxoethylidene]amino}oxy)cyclobutanecarboxylic acid] | 0.5 µg/mL (≈ 0.668 µM) |
| 0.25 µg/mL (≈ 0.355 µM) | 2 µg/mL (≈ 2.84 µM) | C[C@H](NC(=O)NCc1cc(=O)c(O)cn1O)C(=O)NC[C@@H]1[C@H](NC(=O)/C(=N\OC(C)(C)C(=O)O)c2csc(N)n2)C(=O)N1S(=O)(=O)O [Example 55, 2-({[(1Z)-1-(2-amino-1,3-thiazol-4-yl)-2-{[(2R,3S)-2-{[(N-{[(1,5-dihydroxy-4-oxo-1,4-dihydropyridin-2-yl)methyl]carbamoyl}-L-alanyl)amino]methyl}-4-oxo-1-sulfoazetidin-3-yl]amino}-2-oxoethylidene]amino}oxy)-2-methylpropanoic acid] | 0.5 µg/mL (≈ 0.711 µM) |
| 0.125 µg/mL (≈ 0.189 µM) | 1 µg/mL (≈ 1.51 µM) | CC(C)(O/N=C(\C(=O)N[C@@H]1C(=O)N(S(=O)(=O)O)[C@@H]1CNC(=O)CNC(=O)c1cc(=O)c(O)cn1O)c1csc(N)n1)C(=O)O [Example 36, 2-({[(1Z)-1-(2-amino-1,3-thiazol-4-yl)-2-({(2R,3S)-2-[({N-[(1,5-dihydroxy-4-oxo-1,4-dihydropyridin-2-yl)carbonyl]glycyl}amino)methyl]-4-oxo-1-sulfoazetidin-3-yl}amino)-2-oxoethylidene]amino}oxy)-2-methylpropanoic acid] | 0.25 µg/mL (≈ 0.378 µM) |
